From ChEMBL document CHEMBL1146687, “Novel semi-synthetic nocathiacin antibiotics: synthesis and antibacterial activity of bis- and mono-O-alkylated derivatives” (Bioorg Med Chem Lett, 2004)
Values after ≈ are worked out from the molar mass of the structure shown.

Experiments:
Format in all cases: functional
Staphylococcus aureus [1] = assay: In vitro antibacterial activity against […]; 0.003-0.007
Enterococcus faecalis = assay: In vitro antibacterial activity against Enterococcus faecalis
Staphylococcus aureus [2] = assay: In vivo efficacy;(sc) tested for protection against staphylococcus infections in mice; conditions: read-out: PD50
Streptococcus pneumoniae [3] = assay: In vitro antibacterial activity against Streptococcus pneumoniae; […]
Staphylococcus aureus [4] = assay: In vitro antibacterial activity against […]; 0.0070-0.03
Streptococcus pneumoniae [5] = assay: In vitro antibacterial activity against Streptococcus pneumoniae
Mus musculus [6] = assay: In vivo efficacy (sc) tested for protection against staphylococcus infections in mice; 0.3-2.8; conditions: read-out: PD50
Staphylococcus aureus [7] = assay: In vitro antibacterial activity against Staphylococcus aureus
Mus musculus [8] = assay: In vivo efficacy (sc) tested for protection against staphylococcus infections in mice; 1.1-3.3; conditions: read-out: PD50

Row | Compound | MIC (Staphylococcus aureus [1]) | MIC (Enterococcus faecalis) | ED50 (Staphylococcus aureus [2]) | MIC (Streptococcus pneumoniae [3]) | MIC (Staphylococcus aureus [4]) | MIC (Streptococcus pneumoniae [5]) | ED50 (Mus musculus [6]) | MIC (Staphylococcus aureus [7]) | ED50 (Mus musculus [8])
1 | C=C(NC(=O)c1csc(-c2nc3c(cc2OC)-c2nc(cs2)C(=O)N[C@@H]([C@@H](C)O)C(=O)N/C(=C(\C)OC)c2nc(cs2)C(=O)N[C@@H]2c4nc(cs4)C(=O)N[C@@H](COC(=O)c4c5c6c(cccc6n4OC)COC(=O)[C@@H](O[C@H]4C[C@](C)(O)[C@H](N(C)C)[C@H](C)O4)[C@H]2OC5)c2nc-3cs2)n1)C(N)=O | < 0.007 µg/mL | 0.015 µg/mL (≈ 0.0102 µM) | 3.7 mg/kg | < 0.001 µg/mL | – | – | – | – | –
2 | C=C(NC(=O)c1csc(-c2nc3c(cc2O)-c2nc(cs2)C(=O)N[C@@H]([C@@H](C)O)C(=O)N/C(=C(\C)OC)c2nc(cs2)C(=O)N[C@@H]2c4nc(cs4)C(=O)N[C@@H](COC(=O)c4c5c6c(cccc6n4O)COC(=O)[C@@H](O[C@H]4C[C@](C)(O)[C@H](N(C)C)[C@H](C)O4)[C@H]2OC5)c2nc-3cs2)n1)C(N)=O [MJ347-81F4 A] | – | 0.03 µg/mL (≈ 0.0209 µM) | – | – | < 0.03 µg/mL | 0.002 µg/mL (≈ 0.00139 µM) | < 2.8 mg/kg | – | –
3 | CN[C@H](CC(C)C)C(=O)N[C@H]1C(=O)N[C@@H](CC(N)=O)C(=O)N[C@H]2C(=O)N[C@H]3C(=O)N[C@H](C(=O)N[C@H](C(=O)O)c4cc(O)cc(O)c4-c4cc3ccc4O)[C@H](O)c3ccc(c(Cl)c3)Oc3cc2cc(c3O[C@@H]2O[C@H](CO)[C@@H](O)[C@H](O)[C@H]2O[C@H]2C[C@](C)(N)[C@H](O)[C@H](C)O2)Oc2ccc(cc2Cl)[C@H]1O [VANCOMYCIN] | – | < 0.5 µg/mL | – | – | – | – | – | 0.2 µg/mL (≈ 0.138 µM) | < 3.3 mg/kg
